Here are results for 63 compounds from patent publication US7550469B2, “Heterocyclic amide derivatives and their use as dopamine D3 receptor ligands” (Aventis Pharmaceuticals Inc., priority 2001, dated 2009).

One assay deals with T1, cloned human dopamine D3 receptors (Homo sapiens, UniProt P35462).
T1 construct: expressed in transfected cells; membrane homogenate
T1 sequence (P35462 whole entry): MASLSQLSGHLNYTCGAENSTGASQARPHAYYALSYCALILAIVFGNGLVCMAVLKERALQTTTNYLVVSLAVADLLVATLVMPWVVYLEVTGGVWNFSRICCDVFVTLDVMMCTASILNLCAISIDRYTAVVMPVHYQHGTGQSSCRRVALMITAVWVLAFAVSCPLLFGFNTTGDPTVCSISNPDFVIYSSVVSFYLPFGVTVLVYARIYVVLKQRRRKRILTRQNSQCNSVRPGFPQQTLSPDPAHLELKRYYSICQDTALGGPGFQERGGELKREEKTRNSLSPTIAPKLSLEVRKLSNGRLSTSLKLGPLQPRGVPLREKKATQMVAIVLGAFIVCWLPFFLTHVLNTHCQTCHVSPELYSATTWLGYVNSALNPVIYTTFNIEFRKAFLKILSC
In words: [N-Methyl-3H]Spiroperidol binding to cloned human dopamine D3 receptors (Protocol 1). Conditions: D3 Ki (nM), the 25th table. A digest of the protocol:
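Membranes from CHO cells stably expressing cloned human D3 receptor were used for [N-methyl-3H]spiroperidol (60-90 Ci/mmol) binding. Assay buffer was 0.05 M Tris HCl pH 7.7 with 120 mM NaCl, 5 mM KCl, 2 mM CaCl2 and 1 mM MgCl2, optionally 0.1% ascorbic acid; total ligand concentration calculated from added CPM.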
`Cc1ccc(OC(=O)NCC2CC2CN2CCC(c3noc4ccsc34)CC2)cc1` (stereo not drawn) [compound 831698] registered a Ki of 29.4 nM.

The assay is the same for the next values; noted with them: Table 2; read-out: D3K1.
With `COc1cc(OC)cc(C(=O)NCCCN2CCCN(c3csc4cc(F)ccc34)CC2)c1` [compound 827136], the Ki came out at 268 nM. `O=C(NCCCCCCN1CCN(c2csc3cc(C(F)(F)F)ccc23)CC1)c1cc2ccccc2[nH]1` [compound 816315]: the Ki came to 3.7 nM. As for `Cc1ccc2oc(C(=O)NCCCCN3CCCN(c4csc5cc(F)ccc45)CC3)cc2c1` [compound 827129], the Ki amounted to 7.75 nM. On to `O=C(NCCCCN1CCN(c2c(-c3ccccc3)sc3cc(F)ccc23)CC1)c1cc2ccccc2s1` [compound 815873], for which the Ki turned out to be 263 nM. Regarding `O=C(NCCCCCN1CCN(c2csc3cc(C(F)(F)F)ccc23)CC1)c1cc2ccccc2o1` [compound 826803], the Ki stood at 16.9 nM. For `O=C(N[C@H](CO)CCCN1CCN(c2csc3cc(C(F)(F)F)ccc23)CC1)c1ccc2ccccc2c1` [compound 815697], the Ki came to 294 nM. Regarding `O=C(NCCCCN1CCCN(c2csc3cc(F)ccc23)CC1)c1cc2cc(OC(F)(F)F)ccc2o1` [compound 827127], the Ki came out at 74.3 nM. The same measure, in the same setting: with `O=C(NCCCCN1CCCN(c2csc3cc(F)ccc23)CC1)c1cc2cccc(F)c2o1` [compound 827120] the figure was 32.9 nM.

On to `COc1ccc(/C=C/C(=O)NC/C=C\CN2CCN(c3csc4cc(C(F)(F)F)ccc34)CC2)cc1` [compound 827735], for which the Ki is 24.4 nM. As to `O=C(NCC(CO)CCN1CCN(c2csc3cc(C(F)(F)F)ccc23)CC1)c1cccc(C(=O)c2ccccc2)c1` (single isomer, unassigned) [818912ES], the Ki was found to be 249 nM.

The same assay, now with this note: read-out: D3K1.
Turning to `O=C(NCCCCN1CCN(c2c(Cl)sc3cc(F)ccc23)CC1)c1ccc(Cl)cc1` [compound 815060], the Ki is 6.2 nM. As to `O=C(NCCCCCCN1CCN(c2csc3cc(C(F)(F)F)ccc23)CC1)c1cc2ccccc2[nH]1` [compound 816315], the Ki is 3.7 nM. On the same count and under the same terms, in the case of `O=C(NCCCCN1CCN(c2c(Cl)sc3cc(C(F)(F)F)ccc23)CC1)c1ccc(Br)cc1` [compound 815571] it was 34.2 nM. Still for that read-out and setting: in the case of `O=C(NCCCCCN1CCN(c2csc3cc(C(F)(F)F)ccc23)CC1)c1cccc(F)c1` [compound 826772] it was 7.8 nM; in that of `N#Cc1cccc(C(=O)NC/C=C/CN2CCN(c3csc4cc(C(F)(F)F)ccc34)CC2)c1` [compound 827721], 91 nM; in that of `O=C(NCCCCN1CCN(c2c(Cl)sc3cc(F)ccc23)CC1)c1ccc(-c2ccccc2)cc1` [compound 815059], 13.8 nM.

Take `O=C(NC/C=C/CN1CCN(c2csc3cc(C(F)(F)F)ccc23)CC1)c1ccccn1` [compound 827713]: the Ki is 65 nM. On the same count and under the same terms, in the case of `O=C(NCCCCCCN1CCN(c2csc3cc(C(F)(F)F)ccc23)CC1)c1cccc2ccccc12` [compound 826750] it was 3.2 nM. The same measure, in the same setting: with `O=C(N[C@H](CO)CCCN1CCN(c2csc3cc(C(F)(F)F)ccc23)CC1)c1ccc2ccccc2c1` [compound 815697] the figure was 294 nM; with `O=C(NC/C=C\CN1CCN(c2csc3cc(C(F)(F)F)ccc23)CC1)c1cc2ccccc2s1` [compound 827709], 28 nM; with `O=C(NCCCCCN1CCN(c2csc3cc(C(F)(F)F)ccc23)CC1)c1ccc(OC(F)(F)F)cc1` [compound 826767], 14 nM. The same measure, in the same setting: with `O=C(NCCCCN1CCN(c2c(Cl)sc3cc(F)ccc23)CC1)c1sc2ccccc2c1Cl` [compound 815057] the figure was 12.3 nM. Turning to `CCOc1ccc(C(=O)NCCCCN2CCN(c3c(Cl)sc4cc(C(F)(F)F)ccc34)CC2)cc1` [compound 815560], the Ki was 22 nM. On to `O=C(NCCCCN1CCN(c2c(Cl)sc3cc(C(F)(F)F)ccc23)CC1)c1cccs1` [compound 815566], for which the Ki is 32 nM. For the compound `O=C(NCCCCN1CCN(c2c(Cl)sc3cc(C(F)(F)F)ccc23)CC1)c1ccco1` [compound 815576], the Ki stood at 63 nM.

With `CCOc1ccc(C(=O)NCCCCN2CCN(c3c(Cl)sc4cc(F)ccc34)CC2)cc1` [compound 815052], the Ki turned out to be 5.4 nM.

The assay is the same for the next values; noted with them: the 13th table, unit inferred; read-out: D3Ki.
As to `O=C(NCCCCN1CCCN(c2csc3cc(F)ccc23)CC1)c1ccc(-c2ccccc2F)cc1` [S981842], the Ki came to 2.2 nM. On to `O=C(NCCCCCN1CCC(c2noc3ccsc23)CC1)c1ccc(F)cc1` [compound 816217], for which the Ki amounted to 364 nM. For the compound `COc1ccc(C(=O)NCCCCN2CCCN(c3csc4cc(C(F)(F)F)ccc34)CC2)cc1OC` [S980638], the Ki is 39 nM. Consider `COc1ccc2[nH]c(C(=O)NCCCCN3CCCN(c4csc5cc(F)ccc45)CC3)cc2c1` [S977820], for which the Ki is 1.05 nM. Turning to `O=C(NCCCCCN1CCCN(c2csc3cc(F)ccc23)CC1)c1cccc(C(F)(F)F)c1` [S984491], the Ki stood at 54 nM.

For the compound `O=C(NCCCCN1CCCN(c2csc3cc(F)ccc23)CC1)c1ccc(C(F)(F)F)cc1` [S9818147], the Ki stood at 30.8 nM.

With `O=C(NCCCCCN1CCCN(c2csc3cc(F)ccc23)CC1)c1cccc(Cl)c1` [S984486], the Ki amounted to 31.5 nM. The same measure, in the same setting: with `CCOc1ccc(C(=O)NCCCCCN2CCC(c3noc4ccsc34)CC2)cc1` [compound 816198] the figure was 110 nM. Take `O=C(NCCCCN1CCCN(c2csc3cc(F)ccc23)CC1)c1cccc2ccccc12` [compound 822153]: the Ki was found to be 6.1 nM. On to `O=C(/C=C/c1ccccc1)NCCCCN1CCCN(c2csc3cc(F)ccc23)CC1` [S981850], for which the Ki was determined as 0.489 nM.

As for `Cc1oc(-c2ccccc2)cc1C(=O)NCCCCN1CCCN(c2csc3cc(C(F)(F)F)ccc23)CC1` [S980662], the Ki came out at 48 nM. For the compound `O=C(NCCCCN1CCCN(c2csc3cc(F)ccc23)CC1)c1ccc2[nH]ccc2c1` [S977824], the Ki was 1.14 nM. `O=C(NCCCCN1CCCN(c2csc3cc(F)ccc23)CC1)c1cc2ccccc2o1` [822226G]: the Ki is 0.82 nM. Same read-out and setting: with `O=C(NCCCCN1CCCN(c2csc3cc(C(F)(F)F)ccc23)CC1)c1cccs1` [S980627] the figure was 40 nM. For the compound `O=C(NCCCCCN1CCC(c2noc3ccsc23)CC1)c1ccc2ccccc2c1` [compound 816197], the Ki was found to be 116 nM.

As to `O=C(NCCCCCN1CCCN(c2csc3cc(F)ccc23)CC1)c1ccc2cc[nH]c2c1` [S984510], the Ki turned out to be 10.1 nM. `O=C(NCCCCCN1CCCN(c2csc3cc(F)ccc23)CC1)c1n[nH]c2ccccc12` [S984511]: the Ki is 25.4 nM.

Still in this assay, the particulars now being: the 14th table; read-out: D3 Ki.
For `O=C(NCCCCCN1CCN(c2csc3cc(F)ccc23)CC1)c1cc2ccccc2o1` [compound 826793], the Ki stood at 3.7 nM. As for `O=C(NCCCCCCN1CCN(c2csc3cc(C(F)(F)F)ccc23)CC1)c1cc2ccccc2[nH]1` [compound 816315], the Ki came out at 3.7 nM.

Regarding `O=C(NCCCCCN1CCN(c2csc3cc(C(F)(F)F)ccc23)CC1)c1cccc(F)c1` [compound 826772], the Ki was 7.8 nM.

As to `O=C(NCCCCCN1CCN(c2csc3cc(C(F)(F)F)ccc23)CC1)c1cc2ccccc2o1` [compound 826803], the Ki stood at 16.9 nM. With `CC1=C(C(=O)NCCCCCN2CCN(c3csc4cc(F)ccc34)CC2)Cc2ccccc21` [compound 826792], the Ki was 3.91 nM. For `O=C(NCCCCCCN1CCN(c2csc3cc(C(F)(F)F)ccc23)CC1)c1cccc2ccccc12` [compound 826750], the Ki was 3.2 nM. Turning to `O=C(N[C@H](CO)CCCN1CCN(c2csc3cc(C(F)(F)F)ccc23)CC1)c1ccc2ccccc2c1` [compound 815697], the Ki was found to be 294 nM.

As to `O=C(NCCCCCN1CCN(c2csc3cc(C(F)(F)F)ccc23)CC1)c1ccc(OC(F)(F)F)cc1` [compound 826767], the Ki is 14 nM.

The assay is the same for the next values; noted with them: the 15th table; read-out: D3 Ki.
Consider `O=C(NCCCCN1C2CCC1CC(c1noc3ccccc13)C2)c1cc2ccccc2s1` (stereo not drawn) [compound 816535], for which the Ki came to 66.4 nM.

With `O=C(Cc1cccs1)NCCCCN1C2CCC1CC(c1noc3ccccc13)C2` (stereo not drawn) [compound 816521], the Ki came out at 328 nM.

On to `O=C(NCCCCN1C2CCC1CC(c1noc3cc(F)ccc13)C2)c1cccs1` (stereo not drawn) [compound 816323], for which the Ki was 832 nM. In the case of `O=C(NCCCCN1C2CCC1CC(c1noc3cc(F)ccc13)C2)c1ccc(C(F)(F)F)cc1` (stereo not drawn) [compound 816326], the Ki was found to be 223 nM.

The same assay, now with this note: the 16th table; read-out: D3 Ki.
`COc1cc(OC)cc(C(=O)NCCCN2CCCN(c3csc4cc(F)ccc34)CC2)c1` [compound 827136]: the Ki worked out at 268 nM. Take `Cc1ccc2oc(C(=O)NCCCCN3CCCN(c4csc5cc(F)ccc45)CC3)cc2c1` [compound 827129]: the Ki came out at 7.75 nM. As for `O=C(NCCCCN1CCCN(c2csc3cc(F)ccc23)CC1)c1cc2cc(OC(F)(F)F)ccc2o1` [compound 827127], the Ki is 74.3 nM. Take `O=C(NCCCCN1CCCN(c2csc3cc(F)ccc23)CC1)c1cc2cccc(F)c2o1` [compound 827120]: the Ki came to 32.9 nM.

The assay is the same for the next values; noted with them: the 17th table; read-out: D3 Ki.
Take `O=C(c1ccc(F)cc1)N(Cc1ccccc1)CC1CC1CN1CCCN(c2csc3cc(F)ccc23)CC1` (racemic) [compound 830393]: the Ki worked out at 21.8 nM.

Still in this assay, the particulars now being: the 18th table; read-out: D3 Ki.
Take `CC(C)(C)c1ccc(C(=O)NCc2sccc2CN2CCN(c3csc4cc(F)ccc34)CC2)cc1` [compound 826309]: the Ki worked out at 63 nM.

As for `Cc1nn(C)c2sc(C(=O)NCc3sccc3CN3CCN(c4csc5cc(F)ccc45)CC3)cc12` [compound 826321], the Ki was 41.3 nM.

For the compound `O=C(NCc1sccc1CN1CCN(c2csc3cc(F)ccc23)CC1)c1n[nH]c2ccccc12` [compound 826329], the Ki is 14 nM.

The assay is the same for the next values; noted with them: the 19th table; read-out: D3 Ki.
For `O=C(Nc1cccc(CN2CCN(c3csc4cc(F)ccc34)CC2)c1)c1cccs1` [compound 822159], the Ki amounted to 96.7 nM.

The same assay, now with this note: the 20th table; read-out: D3 Ki.
Consider `O=C(NCc1ccoc1CN1CCN(c2csc3cc(F)ccc23)CC1)c1cccc(C(F)(F)F)c1` [compound 825841], for which the Ki was found to be 146 nM.

Still in this assay, the particulars now being: the 21st table; read-out: D3 Ki.
Consider `C[C@@H]1CN(c2csc3cc(F)ccc23)C[C@H](C)N1CCCCNC(=O)c1ccc2cc[nH]c2c1` [compound 826965], for which the Ki amounted to 25.6 nM. The same measure, in the same setting: in the case of `C[C@@H]1CN(c2csc3cc(F)ccc23)C[C@H](C)N1CCCCNC(=O)c1n[nH]c2ccccc12` [compound 826966] it was 77.1 nM.

The assay is the same for the next values; noted with them: the 22nd table; read-out: D3 Ki.
`O=C(NCCCCN1CCN(c2noc3ccsc23)CC1)c1ccc(F)cc1` [compound 829674]: the Ki was found to be 90.2 nM.

On to `O=C(NCCCCN1CCN(c2noc3ccsc23)CC1)c1cc(C(F)(F)F)ccc1F` [compound 829691], for which the Ki came to 151 nM.

With `Cc1ccccc1C(=O)NCCCCN1CCN(c2nn(C(=O)c3ccccc3C)c3ccsc23)CC1` [compound 825146], the Ki worked out at 188 nM.

Still in this assay, the particulars now being: the 23rd table; read-out: D3 Ki.
With `FC(F)(F)c1ccc2c(N3CCN(CC4CC4CNCCCN4CCCCC4)CC3)csc2c1` (racemic) [compound 832659], the Ki is 28.3 nM. On to `COc1ccccc1N1CCN(C[C@@H]2C[C@H]2CN2CCN(c3csc4cc(C(F)(F)F)ccc34)CC2)CC1` [compound 833379], for which the Ki is 0.84 nM.

Turning to `FC(F)(F)c1ccc2c(N3CCN(CC4CC4CN4CCC(N5CCCC5)CC4)CC3)csc2c1` (racemic) [compound 832568], the Ki turned out to be 46.2 nM. Consider `OC1CCC(NCC2CC2CN2CCN(c3csc4cc(C(F)(F)F)ccc34)CC2)CC1` (racemic) [832390FH], for which the Ki was 21.8 nM.
